The source of these data is US5112741A, “Acetaldehyde trapping system” (Enzymatics, Inc., priority 1988, dated 1992).

A short description of test [1]: Trapping of aldehyde/ketone oxidation product and alcohol conversion in enzymatic determination of alcohol (general statements). Type of test: biochemical. The note with it: diamine alone, without alpha-effect amine. The source says: For reasons which are not well understood at the present time, the use of a combination of alpha-effect and primary amines according to the present invention dramatically increases the aldehyde/ketone trapping capacity of the amine trap, as compared to prior art amine traps consisting essentially of primary amine or of alpha-effect amine. Increases in trapping capacity, as measured by effective inactivation of aldehyde/ketone oxidation product in the reaction mixture, of up to about 100-fold over known prior art traps are typical.
With proper selection of amines, typical substrate conversions of about 100% are obtainable without dilution of the sample alcohol concentrations up to about 150 mM, thus permitting accurate and reliable end-point determinations. Such conversions are obtained by selection of amines for trap efficiency so that accumulation of active oxidation product is avoided. This ensures that a favorable reaction equilibrium is established, and that the catalyzing enzyme is not deactivated by oxidation product; the use of amines in the practice of the invention which tend to deactivate the catalyzing enzyme should, of course, be avoided.

For test [2], the system named is alcohol dehydrogenase. Briefly: Relative equilibrium constants of trapping agents from NADH production by alcohol dehydrogenase after 10 minutes. The note with it: 5 mM trapping agent, 200 mM Glycine pH 9.5, 10 mM NAD, 5 mM ethanol, 125 IU ADH. Type of test: biochemical. The procedure: The relative equilibrium constants for trapping agents are listed below in Table 1. […] The reaction formulation was as follows: […] 5 mM ethanol 5 mM trapping agent 125 IU ADH

The subject of test [3] is ADH. As to the kind of experiment: Enzymatic oxidation of 65 mM ethanol by ADH/NAD in presence of trapping mixture. Type of test: biochemical. The conditions noted are these: 650 mM, Tris without alpha-effect amine, or carboxymethoxyamine and borate buffer without primary amine. As to the method: To a reaction mixture containing 5 IU ADH, 100 mM NAD, pH 9.5 and 65 mM ethanol was added a trapping mixture containing:
50 mM Carboxymethoxyamine, pH 10
A trapping mixture containing:
150 mM Carboxymethoxyamine, pH 10
was substituted for the trap in Example 1.
100 mM Hexanediamine, pH 10
150 mM Allylhydroxylamine, pH 9.8
100 mM Nitrobenzylhydroxylamine, pH 10

The subject of test [4] is alcohol dehydrogenase (ADH). The conditions noted are these: cited from earlier work.
Test [5] concerns alcohol dehydrogenase (ADH). The note with it: background statement; cited from earlier work.

For the molecule `NCCCCCCN` [1,6-hexanediamine], in test [1], the “Performance as sole trapping agent” value is “very satisfactory results are obtained”.
In the case of `C=CCON` [Allylhydroxylamine], in test [2], the “RELATIVE EQUILIBRIUM CONSTANT” value is on record as 25.3.
As for `NOCC(=O)O` [Carboxymethoxyamine], the “RELATIVE EQUILIBRIUM CONSTANT” value in test [2] is 38.6. Further, the “Alcohol oxidation, single amine type” value in test [3] is given as “did not result in the complete oxidation of the alcohol”.
As for `CCON` [Ethylhydroxylamine], the “RELATIVE EQUILIBRIUM CONSTANT” value in test [2] came out at 11.8.
As to `CON` [Methoxyamine], in test [2], the “RELATIVE EQUILIBRIUM CONSTANT” value turned out to be 11.7.
Consider `NOCc1ccccc1` [O-Benzylhydroxylamine], for which, in test [2], the “RELATIVE EQUILIBRIUM CONSTANT” value is reported as 40.9.
`NC(CO)(CO)CO` [Tris, Tris hydroxyl methylamine methane]: the “RELATIVE EQUILIBRIUM CONSTANT” value in test [2] is reported as “.2”. The “Alcohol oxidation, single amine type” value in test [3] is “did not result in complete alcohol oxidation”. Besides, the “Conversion of the alcohol” value in test [4] (ADH confined by semi-permeable membrane, continuous flow) is given as “about 18%”. Also, the “Capability of trapping high acetaldehyde concentrations” value in test [4] (Tris by itself, acetaldehyde on the order of 85 mM) is “not capable by itself of reacting with and removing such high concentrations of acetaldehyde”.
Consider `CC=O` [acetaldehyde], for which, in test [5], the “Acetaldehyde concentration that inhibits alcohol dehydrogenase” value is recorded as “greater than 1 mM”.
Turning to Nitrobenzylhydroxylamine, in test [2], the “RELATIVE EQUILIBRIUM CONSTANT” value came out at 202.0.
